# Key:
# Assay in all cases: relative viability (nuclei count vs DMSO), 5 days (fraction); higher = more cells survive
# [1] = compound: C1/C(=C\C2=CC=CS2)/C(=O)/C(=C/C3=CC=CS3)/C1 + CC1(C)CCC(c2ccc(Cl)cc2)=C(CN2CCN(c3ccc(C(=O)NS(=O)(=O)c4ccc(N[C@H](CCN5CCOCC5)CSc5ccccc5)c(S(=O)(=O)C(F)(F)F)c4)cc3)CC2)C1 [Navitoclax] (partner 0.5 µM)
# Procedure, shortened: (§1)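 Relative viability was taken as the ratio of nuclei in treated wells to nuclei in vehicle wells. Lung cancer cell lines in 1536-well plates received compounds by pin tool one day after seeding, either one drug alone or a fixed anchor-drug dose plus five library-drug doses (not always all listed) in √10 steps. Nuclei were counted on 4× images after 5 days of treatment, and values are medians of duplicate plates.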
# TPCA-1 + Luminespib = compound: C1=CC(=CC=C1C2=CC(=C(S2)NC(=O)N)C(=O)N)F [TPCA-1] + CCNC(=O)c1noc(-c2cc(C(C)C)c(O)cc2O)c1-c1ccc(CN2CCOCC2)cc1 [Luminespib] (partner 0.01 µM)
# Procedure, shortened: as §1
# TPCA-1 + Trametinib = compound: C1=CC(=CC=C1C2=CC(=C(S2)NC(=O)N)C(=O)N)F [TPCA-1] + CC(=O)Nc1cccc(-n2c(=O)n(C3CC3)c(=O)c3c(Nc4ccc(I)cc4F)n(C)c(=O)c(C)c32)c1 [Trametinib] (partner 0.02 µM)
# Procedure, shortened: as §1
# [2] = compound: C1/C(=C\C2=CC=CS2)/C(=O)/C(=C/C3=CC=CS3)/C1 + N=C(N)NC(=N)NCCc1ccccc1 [Phenformin] (partner 250 µM)
# Procedure, shortened: as §1
Cell Line,relative viability ([1]; first compound 0.2 µM),relative viability ([1]; first compound 0.6325 µM),relative viability ([1]; first compound 2 µM),relative viability ([1]; first compound 6.325 µM),relative viability ([1]; first compound 20 µM),relative viability (TPCA-1 + Luminespib; first compound 0.04 µM),relative viability (TPCA-1 + Luminespib; first compound 0.1265 µM),relative viability (TPCA-1 + Luminespib; first compound 0.4 µM),relative viability (TPCA-1 + Luminespib; first compound 1.265 µM),relative viability (TPCA-1 + Luminespib; first compound 4 µM),relative viability (TPCA-1 + Trametinib; first compound 0.04 µM),relative viability (TPCA-1 + Trametinib; first compound 0.1265 µM),relative viability (TPCA-1 + Trametinib; first compound 0.4 µM),relative viability (TPCA-1 + Trametinib; first compound 1.265 µM),relative viability (TPCA-1 + Trametinib; first compound 4 µM),relative viability ([2]; first compound 0.2 µM),relative viability ([2]; first compound 0.6325 µM),relative viability ([2]; first compound 2 µM),relative viability ([2]; first compound 6.325 µM),relative viability ([2]; first compound 20 µM)
NCI-H2170,0.655,0.565,0.678,0.516,0.547,0.968,0.703,0.535,0.681,0.277,0.903,0.907,0.937,0.866,0.455,0.466,0.484,0.426,0.405,0.408
HCC-366,1.09,1,0.955,1.05,1.05,–,–,–,–,–,–,0.323,0.331,0.312,0.24,0.569,0.638,0.625,0.55,0.613
NCI-H2347,0.721,0.741,0.725,0.857,0.801,0.694,0.33,0.344,0.453,0.242,0.26,0.316,0.276,0.266,0.252,0.362,0.592,0.283,–,0.49
COR-L 105,0.623,0.772,0.79,0.737,0.701,0.782,0.658,0.766,0.738,0.648,0.542,0.321,0.422,0.505,0.407,0.526,0.491,0.499,–,0.481
201T,1.24,1.17,1.27,1.13,1.2,1.1,1.07,1.07,1.05,0.967,0.717,0.729,0.691,0.733,0.751,0.495,0.431,0.478,0.425,0.455
NCI-H2126,0.941,0.79,0.832,0.628,0.845,0.94,0.947,0.984,0.797,0.676,0.534,0.528,0.58,0.538,0.555,0.549,0.551,0.566,0.483,0.536
LC-2-ad,0.451,0.451,0.399,0.406,0.49,1.13,1.01,0.826,0.908,0.663,0.946,0.941,0.958,0.968,0.765,0.632,0.584,0.671,0.555,0.605
NCI-H2085,1.13,1.16,1.03,1.15,1.09,0.427,0.408,0.574,0.473,0.45,–,0.613,0.655,0.532,0.514,0.81,0.791,0.839,0.619,0.644
NCI-H358,–,–,–,–,–,0.286,0.366,0.279,0.266,0.125,0.167,0.165,0.157,0.158,0.0935,0.358,0.303,0.428,–,0.281
H3255,0.583,0.501,0.669,0.393,0.453,0.696,0.893,0.836,0.822,0.622,0.728,0.545,0.62,0.596,0.519,0.377,0.324,0.352,0.34,0.309
NCI-H2228,0.823,1.3,0.904,0.73,1.05,0.174,0.139,0.124,0.131,0.117,0.443,0.517,0.671,0.346,0.155,0.422,0.297,0.369,0.335,0.357
CAL-12T,1.31,1.35,1.35,0.844,1.05,0.462,0.351,0.196,0.294,0.194,0.326,0.331,0.345,0.358,0.254,0.651,0.672,0.562,0.585,0.574
A-427,1.03,1.02,0.982,0.852,0.92,1.01,0.873,0.935,0.902,0.637,0.771,0.652,0.875,0.68,0.718,0.346,0.417,0.273,0.292,0.278
HARA,1.1,1.15,1.13,0.497,1.11,0.791,0.754,0.864,0.83,0.382,0.8,1.11,0.7,0.63,0.677,0.449,0.452,0.481,0.444,0.407
NCI-H1793,0.376,0.512,0.503,0.402,0.519,0.173,–,0.142,0.142,0.134,0.466,0.473,0.4,0.451,0.384,0.375,0.351,0.515,0.337,0.355
NCI-H1623,–,–,–,–,–,0.601,0.555,0.54,0.433,0.426,–,–,–,–,–,0.644,0.577,0.502,0.599,0.59
NCI-H2009,1.19,1.21,1.06,1.15,1.16,0.977,1.05,1.01,1.02,1.03,0.309,0.249,0.303,0.321,0.211,0.511,0.52,0.493,0.453,0.426
ABC-1,–,–,–,–,–,1.24,0.477,0.34,0.665,0.47,–,–,–,–,–,0.234,0.253,0.247,0.219,0.211

Cell Line,relative viability ([1]; first compound 0.2 µM),relative viability ([1]; first compound 0.6325 µM),relative viability ([1]; first compound 2 µM),relative viability ([1]; first compound 6.325 µM),relative viability ([1]; first compound 20 µM),relative viability (TPCA-1 + Luminespib; first compound 0.04 µM),relative viability (TPCA-1 + Luminespib; first compound 0.1265 µM),relative viability (TPCA-1 + Luminespib; first compound 0.4 µM),relative viability (TPCA-1 + Luminespib; first compound 1.265 µM),relative viability (TPCA-1 + Luminespib; first compound 4 µM),relative viability (TPCA-1 + Trametinib; first compound 0.04 µM),relative viability (TPCA-1 + Trametinib; first compound 0.1265 µM),relative viability (TPCA-1 + Trametinib; first compound 0.4 µM),relative viability (TPCA-1 + Trametinib; first compound 1.265 µM),relative viability (TPCA-1 + Trametinib; first compound 4 µM),relative viability ([2]; first compound 0.2 µM),relative viability ([2]; first compound 0.6325 µM),relative viability ([2]; first compound 2 µM),relative viability ([2]; first compound 6.325 µM),relative viability ([2]; first compound 20 µM)
IA-LM,0.938,0.925,0.88,0.565,0.704,–,–,–,–,–,–,–,–,–,–,–,–,–,–,–
NCI-H322M,1.32,1.2,1.4,0.587,0.976,1,0.812,0.984,1.01,0.366,0.499,0.455,0.51,0.449,0.494,0.85,0.814,0.923,0.628,0.768
NCI-H1792,0.666,0.579,0.743,–,0.624,0.429,0.237,0.446,0.501,0.367,0.489,0.333,0.394,0.374,0.243,0.514,0.273,0.67,0.287,0.322
SW 900,–,–,–,–,–,0.179,0.176,0.212,0.201,0.176,–,–,0.775,0.909,0.764,0.613,0.551,0.875,0.69,0.541
NCI-H1299,1.08,1.08,1.03,0.973,1.05,–,–,–,–,–,–,–,–,–,–,–,–,–,–,–
NCI-H1563,–,–,–,–,–,0.522,0.601,0.521,0.532,0.451,–,–,–,–,–,0.672,0.66,0.655,0.614,0.593
NCI-H661,–,–,–,–,–,0.973,0.934,0.962,0.846,0.806,0.67,0.541,0.535,0.573,0.377,0.288,0.259,0.275,0.253,0.307
Calu-6,0.855,0.848,0.91,0.811,0.857,–,–,–,–,–,–,–,–,–,–,–,–,–,–,–
NCI-H650,–,–,–,–,–,0.858,0.788,0.849,0.499,0.328,1.08,0.857,0.948,0.862,0.813,0.43,0.442,0.465,0.45,0.449
NCI-H1703,1.3,1.8,1.32,1.05,1.14,–,–,–,–,–,–,–,–,–,–,–,–,–,–,–
EBC-1,0.439,0.469,0.478,0.398,0.497,–,–,–,–,–,–,–,–,–,–,–,–,–,–,–
NCI-H2342,–,–,–,–,–,0.921,0.66,0.819,0.754,0.694,0.792,0.685,0.79,0.829,0.944,0.535,0.63,0.689,0.524,0.519
NCI-H1648,–,–,–,–,–,–,–,–,–,–,0.505,0.473,0.378,0.169,0.582,–,–,–,–,–
NCI-H522,–,–,–,–,–,1.13,0.946,1.22,1.15,0.84,0.872,0.737,0.901,0.766,0.6,0.677,0.649,0.662,0.644,0.651
A549,1.32,1.33,1.24,1.02,1.19,–,–,–,–,–,–,–,–,–,–,0.208,0.196,0.154,–,0.17
LCLC-103H,–,–,–,–,–,0.97,0.99,0.852,0.965,0.752,0.689,0.671,0.689,0.725,0.684,0.326,0.329,0.361,0.288,0.356
HCC-78,0.81,0.786,0.82,0.682,0.782,–,–,–,–,–,0.837,0.677,0.722,0.78,0.519,0.654,0.78,0.945,0.603,0.695

# — the supplement of paper PMC10307832
